Results on one compound are retold here after patent publication US20210308101A1, “METHODS OF TREATING FIBROMYALGIA” (Aptinyx Inc., priority 2019, published 2021).

Each structure is given as a SMILES string.

The subject of assay [1] is subjects with fibromyalgia. Briefly: Brief Pain Inventory - Short Form (BPI-SF). The assay is classed as in vivo, human. The settings on record: not statistically significant. From the text:
As used herein, “Brief Pain Inventory” (BPI)—Short Form is a brief, simple patient-completed numeric rating scale that assesses the severity of pain (Severity scale), its impact on daily functioning (Interference scale), and other aspects of pain (e.g., location of pain, relief from medications). A short form version of the BPI, including the 4-item pain Severity scale (Worst Pain, Least Pain, Average Pain, and Pain Now) and the 7-item pain Interference scale (General Activity, Mood, Walking Ability, Normal Work, Relations with Other People, Sleep, Enjoyment of Life) were the main BPI-Short Form analyses. […] If at least 3 of the 4 Severity items have a reported score, then the Pain Severity Index was the calculated mean. Otherwise, the Pain Severity Index was set to missing. […] Otherwise, the Pain Interference Index was set to missing. […] The Pain Severity Index and the Pain Interference Index were referred to as composite scores.
There may be dates in which worst pain in the last 24 hours has scores that are less than the least pain in the last 24 hours and/or right now pain scores. Also, the least pain in the last 24 hours scores may be greater than the worst pain in the last 24 hours and/or right now pain scores. This may be due to the collection of the data that cannot be changed due to the subject's confusion of the three scores. The Pain Severity Index score equally distributes all these three scores and the average pain score. Therefore, the Pain Severity Index score is not impacted by any of these scores being mixed up. As a result, the scores were analyzed based on the values collected.
The 2 composite scores took on values ranging from 0 to 10 and were rounded off by one number after the decimal point. A total pain score for BPI-Short Form was not calculated. The BPI-Short Form assessment was collected and analyzed at visits Screening, Day 1, Week 2, Week 4, Week 6, and Follow-up (Week 7). The observed composite scores, changes from baseline, and changes from treatment periods were summarized using descriptive statistics. Additionally, the treatment group comparisons were analyzed using the paired t-test and nonparametric Wilcoxon signed-rank test. All BPI-Short Form data collected and the calculated composite scores at each visit were presented in a subject listing. […] Have you had pain other than these everyday kinds of pain today?” is a categorical response (yes/no). […] This question was included in the descriptive statistics, but was not analyzed using any paired t-test and nonparametric Wilcoxon signed-rank test comparisons. • BPI-Short Form question 2, “On the diagram, shade in the areas where you feel pain. […]

Assay [2] concerns subjects with fibromyalgia. Briefly: Numeric Pain Rating Scale (NPRS) daily pain scores. The assay is classed as in vivo, human. How it is done: As used herein, “NPRS” is Numeric Pain Rating Scale Score. Numeric pain rating scale is a unidimensional segmented numeric version of the visual analog scale. The NPRS score assessing average pain intensity in the past 24 hours are based on an 11-point numerical rating scale/Likert scale ranging from 0 to 10. Where 0 represents no pain and 10 is the worst pain imaginable. Individual one-time scores were collected at the Screening and Day 1 visits on the CRF in order to confirm eligibility status for the subjects. These CRF pain scores were not used in the analysis tables. Instead, the pain scores collected by eRT via phone data collection were used in the analysis tables. eRT collected a variable if the call was completed per the requirements. […] The daily pain scores were summarized using the mean and were calculated for the analysis visits at Baseline and Weeks 1-7. There needed to be at least 4 daily pain scores collected within a post-baseline analysis visit in order to calculate the mean pain score for that visit. Each mean analysis visit score took on values ranging from 0 to 10 and was rounded off by one number after the decimal point. No missing data imputations were used for these individual values or computed means. The actual values/means, changes from baseline, and changes from treatment periods at each analysis visit were summarized using descriptive statistics. Additionally, the treatment group comparisons were analyzed using the paired t-test and nonparametric Wilcoxon signed-rank test. All data collected and derived were presented in subject listings. The pain scores collected by eRT and the CRF were presented in separate subject listings.
The collection methods of the NPRS score assessing worst pain intensity in the past 24 hours were the same as the efficacy data for the NPRS score assessing average pain intensity in the past 24 hours and was analyzed using the same techniques. The worst pain score must be greater than or equal to the average pain score for each assessment. In the event a worst pain score was less than the average pain, both pain scores were removed from calculating the mean weekly analysis visit scores. These collected pain scores were presented in the subject listings with a note that they would be removed from the analysis tables.
The timeline of events in the study are depicted in FIG. 1A. The study included up to a 30 day screening period, to confirm the diagnosis, assess eligibility, and complete the baseline magnetic resonance imaging (MRI). This was a single-blind, exploratory, placebo-controlled pilot study in which eligible subjects received 2 weeks of daily oral (QD) placebo, 2 weeks of NYX-2925 20 mg PO daily (low dose), 2 weeks of NYX-2925 200 mg PO daily (high dose), followed by a 1 week follow-up period. An MRI was conducted during the screening period, during the last week of the placebo period, during the last week of the NYX-2925 20 mg administration period, and during the last week of the NYX-2925 200 mg administration period. Study visits occurred during screening, then at day one and weeks 1, 2, 3, 4, 5, 6, and 7. An optional MRI was completed at the end of the follow-up period for consenting subjects. Study participants and study staff responsible for interpreting MRI results were blinded to the study drug administration.

Where [3] appears, read: Week 2 (placebo) to Week 4 (NYX-2925 20 mg).
[4] abbreviates: Week 2 (placebo) to Week 6 (NYX-2925 200 mg).
Where [5] appears, read: week six, after four weeks of NYX-2925, scale 0 to 10, n=19.

As for `CC(C)C(=O)N1CCC[C@]12CN([C@H](C(N)=O)[C@@H](C)O)C2=O` [NYX-2925, (2S, 3R)-3-hydroxy-2-((R)-5-isobutyryl-1-oxo-2,5-diazaspiro[3.4]octan-2-yl)butanamide], in assay [1] (setting [3]), the “BPI-SF Pain Interference Index score, mean change” value is recorded as −0.04 and the “BPI-SF Pain Severity Index score, mean change” value is −0.22. In assay [1] (setting [4]), the “BPI-SF Pain Interference Index score, mean change” value was −0.66 and the “BPI-SF Pain Severity Index score, mean change” value is listed as −0.27. In assay [2] (NYX-2925 20 mg), the “average daily pain, change from baseline” value is listed as “reductions from baseline” and the “worse daily pain, change from baseline” value is “reductions from baseline”. The “NPRS average pain score, mean change” value in assay [2] (Week 2 (placebo) to Week 4 (NYX-2925 20 mg PO QD)) is −0.10. The “NPRS average pain score, mean change” value in assay [2] (Week 2 (placebo) to Week 6 (NYX-2925 200 mg PO QD), p=0.0072) was −0.66. The “NPRS worst pain score, mean change” value in assay [2] (Week 2 (placebo) to Week 6 (NYX-2925 200 mg), p=0.0360) was −0.61. In addition, in assay [2] (setting [5]), the “Average daily pain score, reduction from baseline” value was determined as 1.1 point and the “Worst daily pain score, reduction from baseline” value is reported as 1.0 point.
